In patent US9856232B1, “Dihydropyrimidinone derivatives” (KING SAUD UNIVERSITY, priority 2017, dated 2018):
Marks after values point to notes of the source that are not given here.

Tests used:
[1] = tested on: Gastric lesions induced by necrotizing agents (80% ethanol, 0.2 mol/L NaOH or 25% NaCl); assay: Gastric lesions induced by necrotizing agents (cytoprotection); format: in vivo, Albino Wistar rats; details: i.p, 30 min before necrotizing agent, mean ± SE
[2] = tested on: Indomethacin-induced gastric mucosal lesions; assay: Gastric lesions induced by Indomethacin; format: in vivo, Albino Wistar rats; parameters: scale not given here; details: i.p, 30 min before Indomethacin 30 mg/kg, mean ± SE
Source text: Albino Wistar rats of either sex, approximately the same age, weighing 150 to 200 g and fed on a diet of standard chow were used in this study. They were randomly divided into experimental groups of six rats each. […] The rats were sacrificed, and the stomachs removed and opened along the greater curvature, After washing with saline, the gastric lesions were quantified by a person unaware of the treatments. The animal study protocol was approved by the Research and Ethics Committee of the Experimental Animal Care Society, College of Pharmacy, King Saud University, Riyadh, Saudi Arabia.
Gastric lesions induced by Indomethacin: Indomethacin was suspended in 1.0% carboxymethylcellulose (CMC) in water (6 mg/mL) and administered orally to the 36 hour fasted rats at a dose of 30 mg/kg body weight. Control rats were treated similarly with an equivalent amount of vehicle. […] The animals were sacrificed 6 hours after treatment. The stomachs were excised, rinsed with normal saline and examined for ulceration. Table 3 provides the effect of compounds on Indomethacin-induced gastric mucosal lesions (mean±SE).

[3] = tested on: Hypothermic restraint stress-induced intraluminal bleeding and gastric lesion; assay: Hypothermic restraint stress-induced ulcers; format: in vivo, Albino Wistar rats; parameters: Gastric Lesion Ulcer Index: scale not given here; details: hypothermic restraint 3 h, mean ± SE
[4] = tested on: gastric wall mucus in stomach tissue, change induced by 80% ethanol; assay: Determination of gastric wall mucus (GWM); format: in vivo, Albino Wistar rats; details: i.p, 80% ethanol-treated rats, mean ± SE
Method: (§1) Albino Wistar rats of either sex, approximately the same age, weighing 150 to 200 g and fed on a diet of standard chow were used in this study. They were randomly divided into experimental groups of six rats each. Compounds (N-1 to N-18) 12.5, 25, and 50 mg/kg were given orally in the anti-ulcer studies and intraperitoneally for gastric secretion evaluation. The rats were sacrificed, and the stomachs removed and opened along the greater curvature, After washing with saline, the gastric lesions were quantified by a person unaware of the treatments. The animal study protocol was approved by the Research and Ethics Committee of the Experimental Animal Care Society, College of Pharmacy, King Saud University, Riyadh, Saudi Arabia.
Determination of gastric wall mucus (GWM): Gastric wall mucus was determined according to the modified procedure. The glandular segment of the stomach was separated from the rumen of the stomach, weighed, and transferred immediately to 10 mL of 0.1% w/v Alcian blue solution (in […] sucrose solution buffered with […] sodium acetate at pH 5. Tissue was stained for 2 hours in Alcian blue, and excess dye was removed by two successive rinses with 10 mL of […] sucrose, firstly after 15 minutes and then after 45 minutes. Dye complexed with the gastric wall mucus was extracted with 10 ml of […] magnesium chloride which was intermittently shaken for 1 minute at 30 minute intervals for 2 hours. Four milliliters of blue extract were then vigorously shaken with an equal volume of diethyl ether. The resulting emulsion was centrifuged at 4000 r/min for 10 minutes and the absorbance of the aqueous layer was recorded at 580 nm. The quantity of Alcian blue extracted per gram of wet glandular tissue was then calculated. Table 6 provides the effect of compounds on the change in gastric wall mucus in stomach tissue induced by 80% ethanol (mean±SE).

[5] = tested on: malondialdehyde in stomach tissue, induced by 80% ethanol; assay: Determination of malondialdehyde (MDA); format: in vivo, Albino Wistar rats; details: mean ± SE
Method: as §1
Determination of malondialdehyde (MDA): The animals were sacrificed 1 hour after ethanol administration. The stomachs were removed and each was homogenized in 0.15 mol/L KCl (at 4° C.) in a Potter-Elvehjem type C homogenizer to give a 10% w/v homogenate. Aliquots of homogenate 1 mL in volume were incubated at 37° C. for 3 hours in a metabolic shaker. Then 1 mL of 10% aqueous TCA was added and mixed. The mixture was then centrifuged at 800 g for 10 minutes. One milliliter of the supernatant was removed and mixed with 1 mL of 0.67% w/v thiobarbituric acid in water and placed in a boiling water bath for 10 minutes. The mixture was cooled and diluted with 1 mL distilled water. The absorbance of the solution was then read at 535 nm. The content of malondialdehyde (nmol/g wet tissue) (index of the magnitude of lipid peroxidation) was then calculated, by reference to a standard curve of malondialdehyde solution. Table 7 provides the effect of compounds on the levels of MDA, NP_SH, and total protein in stomach tissue induced by 80% ethanol (mean±SE).

in vivo = details: mouse
Source text: (§2) At the end of the study period, expired animals were counted for the calculation of LD50. The following arithmetic method from Karber (Arch. Exptl. Pathol. Pharmakol, […], 162, 480-483) was used for the determination of LD50: LD50=LD100−Σ×(a×b)/n
(§3) wherein n=total number of animals in a group; a=the difference between two successive doses of administered extract/substance; b=the average number of dead animals in two successive doses; and LD100=lethal dose causing the 100% death of all test animals.
(§4) Table 8 provides the LD50 values of the compounds determined by the Karber method.

mouse = assay: in vivo; details: 24 h
Source text: as §2, §3, §4

[6] = dose 12.5, 80% ethanol-treated rats
[7] = dose 25, 80% ethanol-treated rats
[8] = dose 50, 80% ethanol-treated rats

Row | Compound | Ulcer Index, 0.2 mol/L NaOH ([1]; 12.5 mg/kg) | Ulcer Index, 25% NaCl ([1]; 12.5 mg/kg) | Ulcer Index, 80% EtOH ([1]; 12.5 mg/kg) | Ulcer Index, 0.2 mol/L NaOH ([1]; 25 mg/kg) | Ulcer Index, 25% NaCl ([1]; 25 mg/kg) | Ulcer Index, 80% EtOH ([1]; 25 mg/kg) | Ulcer Index, 0.2 mol/L NaOH ([1]; 50 mg/kg) | Ulcer Index, 25% NaCl ([1]; 50 mg/kg) | Ulcer Index, 80% EtOH ([1]; 50 mg/kg) | Ulcer Index, indomethacin-induced gastric mucosal lesions ([2]; 12.5 mg/kg) | Ulcer Index, indomethacin-induced gastric mucosal lesions ([2]; 50 mg/kg) | Gastric Lesion Ulcer Index ([3]; 12.5 mg/kg) | Intraluminal Bleeding Score ([3]; 12.5 mg/kg) | Gastric Lesion Ulcer Index ([3]; 50 mg/kg) | Intraluminal Bleeding Score ([3]; 50 mg/kg) | Gastric Wall Mucus ([4]; 12.5 mg/kg) | Gastric Wall Mucus ([4]; 25 mg/kg) | Gastric Wall Mucus ([4]; 50 mg/kg) | MDA [5, 6] | MDA [5, 7] | also measured
1 | COc1ccccc1C1NC(=O)NC=C1C(=O)c1ccc(N2CCCCC2)cc1 (centres unmarked) [Compound N-8, 4-(2-Methoxyphenyl)-5-[4-(piperidin-1-yl)benzoyl]-3,4-dihydropyrimidin-2(1H)-one] | 6.66 ± 0.33 | 6.00 ± 0.25 | 7.00 ± 0.36 | 5.33 ± 0.71 | 5.00 ± 0.44 | 6.50 ± 0.42 | 3.83 ± 0.30 | 3.33 ± 0.30 | 5.83 ± 0.30 | 33.00 ± 1.52 | 28.66 ± 1.45 | 29.83 ± 1.50 | 3.50 ± 0.42 | 18.66 ± 0.55 | 2.50 ± 0.42 | 206.39 ± 7.18^b μg/g | 212.00 ± 6.40^b μg/g | 244.65 ± 5.36**^b μg/g | 6.63 ± 0.26^b nmol/g | 4.83 ± 0.24***^b nmol/g | Ulcer Index, indomethacin-induced gastric mucosal lesions ([2]; 25 mg/kg): 29.50 ± 1.58; Gastric Lesion Ulcer Index ([3]; 25 mg/kg): 27.66 ± 1.60; Intraluminal Bleeding Score ([3]; 25 mg/kg): 3.33 ± 0.21; MDA [5, 8]: 3.75 ± 0.07***^b nmol/g; LD50 at 24 h (in vivo): 55.5 mg/kg; Dead (of 10 animals) (mouse; 5 mg/kg): 0; Dead (of 10 animals) (mouse; 25 mg/kg): 2; Dead (of 10 animals) (mouse; 50 mg/kg): 6; Dead (of 10 animals) (mouse; 100 mg/kg): 9; Dead (of 10 animals) (mouse; 200 mg/kg): 10; Dead (of 10 animals) (mouse; 300 mg/kg): 10
2 | COc1ccc(C2NC(=O)NC=C2C(=O)c2ccc(N3CCCCC3)cc2)c(OC)c1OC (centres unmarked) [Compound N-15, 4-(2,3,4-Trimethoxyphenyl)-5-[4-(piperidin-1-yl)benzoyl]-3,4-dihydropyrimidin-2(1H)-one] | 3.50 ± 0.22 | 3.66 ± 0.33 | 4.66 ± 0.33 | 2.16 ± 0.30 | 2.66 ± 0.33 | 2.66 ± 0.33 | 1.33 ± 0.42 | 1.66 ± 0.33 | 2.16 ± 0.30 | 26.33 ± 1.30 | 14.50 ± 1.64 | 25.66 ± 1.08 | 2.16 ± 0.30 | 12.33 ± 0.84 | 1.33 ± 0.33 | 231.78 ± 4.77*^b μg/g | 248.09 ± 7.69**^b μg/g | 275.32 ± 5.37***^b μg/g | 3.51 ± 0.08***^b nmol/g | 2.72 ± 0.10***^b nmol/g | Gastric Lesion Ulcer Index ([3]; 25 mg/kg): 16.66 ± 0.33; Intraluminal Bleeding Score ([3]; 25 mg/kg): 1.66 ± 0.21; MDA [5, 8]: 1.90 ± 0.06***^b nmol/g; LD50 at 24 h (in vivo): 116 mg/kg; Dead (of 10 animals) (mouse; 5 mg/kg): 0; Dead (of 10 animals) (mouse; 25 mg/kg): 1; Dead (of 10 animals) (mouse; 50 mg/kg): 3; Dead (of 10 animals) (mouse; 100 mg/kg): 4; Dead (of 10 animals) (mouse; 200 mg/kg): 9; Dead (of 10 animals) (mouse; 300 mg/kg): 10
3 | O=C1NC=C(C(=O)c2ccc(N3CCCCC3)cc2)C(c2ccc([N+](=O)[O-])cc2)N1 (centres unmarked) [Compound N-3, 4-(4-Nitrophenyl)-5-[4-(piperidin-1-yl)benzoyl]-3,4-dihyropyrimidin-2(1H)-one] | 4.50 ± 0.22.*** | 5.16 ± 0.47 | 6.83 ± 0.30 | 2.66 ± 0.33 | 2.83 ± 0.30 | 4.16 ± 0.30 | 1.83 ± 0.40 | 1.66 ± 0.33 | 3.00 ± 0.36 | 29.83 ± 1.66 | 12.66 ± 1.28 | 24.16 ± 1.70 | 2.83 ± 0.30 | 13.83 ± 0.60 | 1.16 ± 0.30 | 242.08 ± 4.03*^b μg/g | 241.66 ± 6.91**^b μg/g | 256.18 ± 8.39***^b μg/g | 4.47 ± 0.44***^b nmol/g | 3.07 ± 0.16***^b nmol/g | Ulcer Index, indomethacin-induced gastric mucosal lesions ([2]; 25 mg/kg): 20.50 ± 1.52; Gastric Lesion Ulcer Index ([3]; 25 mg/kg): 17.66 ± 0.76; Intraluminal Bleeding Score ([3]; 25 mg/kg): 1.50 ± 0.22; MDA [5, 8]: 1.95 ± 0.05***^b nmol/g; LD50 at 24 h (in vivo): 125 mg/kg; Dead (of 10 animals) (mouse; 5 mg/kg): 0; Dead (of 10 animals) (mouse; 25 mg/kg): 0; Dead (of 10 animals) (mouse; 50 mg/kg): 2; Dead (of 10 animals) (mouse; 100 mg/kg): 5; Dead (of 10 animals) (mouse; 200 mg/kg): 8; Dead (of 10 animals) (mouse; 300 mg/kg): 10
4 | CN(C)c1ccc(C2NC(=O)NC=C2C(=O)c2ccc(N3CCCCC3)cc2)cc1 (centres unmarked) [Compound N-11, 4-(4-Dimethylaminophenyl)-5-[4-(piperidin-1-yl)benzoyl]-3,4-dihydropyrimidin-2(1H)-one] | 6.33 ± 0.42 | 6.00 ± 0.36 | 7.16 ± 0.30 | 3.66 ± 0.21 | 4.83 ± 0.40 | 6.16 ± 0.30 | 3.66 ± 0.33 | 3.83 ± 0.30 | 4.83 ± 0.30 | 33.00 ± 1.03 | 28.31 ± 1.78 | 29.83 ± 1.51 | 3.66 ± 0.33 | 21.00 ± 0.51 | 2.00 ± 0.36 | 192.87 ± 12.84^b μg/g | 224.88 ± 4.64*^b μg/g | 217.36 ± 3.31**^b μg/g | 5.16 ± 0.22***^b nmol/g | 3.99 ± 0.17***^b nmol/g | Ulcer Index, indomethacin-induced gastric mucosal lesions ([2]; 25 mg/kg): 30.66 ± 1.28; Gastric Lesion Ulcer Index ([3]; 75 mg/kg): 29.00 ± 1.21; Intraluminal Bleeding Score ([3]; 75 mg/kg): 2.66 ± 0.33; MDA [5, 8]: 3.36 ± 0.08***^b nmol/g
